From patent EP4782437A1, “HETEROARYL COMPOUND, AND PREPARATION METHOD THEREFOR AND USE THEREOF IN MEDICINE” (Jiangsu Hengrui Pharmaceuticals Co., Ltd., priority 2023, dated 2025)

How the values were obtained:
[1] = system: B cell activation in human whole blood; assay: Inhibition of B cell activation in human whole blood (CD69 expression, flow cytometry); type: cell-based; conditions: anti-human IgD 30 µg/ml + IL-4 5 ng/ml, 18 hours, CD69-positive CD19-positive B cells, read-out: IC50 values of inhibitory activity against B cell activation in human whole blood
From the text: Test example 2: Inhibitory activity of compounds of the present disclosure against B cell activation in human whole blood • I. Experimental materials and instruments • 1. Human whole blood (internal recruitment) • 2. Goat F(ab')2 anti-human IgD-UNLB (SouthernBiotech, 2032-01) • 3. DPBS (1x) (Gibco, 14190-144) • 4. Recombinant human IL-4 (Peprotech, 200-04) • 5. Brilliant Violet 421™ anti-human CD19 antibody (Biolegend, 302234) • 6. APC anti-human CD69 antibody (Biolegend, 310910) • 7. APC mouse IgG1, κ isotype control antibody (Biolegend, 400120) • 8. eBioscience™ 10X RBC lysis buffer (multi-species) (Thermo, 004300-54) • 9. NEST 96-well deep-well plate (Wuxi NEST Biotechnology Co., Ltd., 503501) • 10. 96-well round-bottom plate (Corning, 3788) • 11. 96-well flat-bottom plate (Corning, 3599) • 12. Attune™ NxT acoustic focusing cytometer (ThermoFisher Scientific, 4.2.0) • 13. Cell incubator (Thermo, Forma steri-cycle i160) • II. Experimental procedure
B cells express the B cell receptor (BCR) complex on their surface. When B cells in human whole blood are induced to activate, they can trigger the downstream signalling pathways of the receptor and express the activation marker CD69. The expression of CD69 in activated B cells was detected by flow cytometry, and the IC50 of the compounds were calculated to evaluate the effects of the compounds on BCR activation.
The test compounds dissolved in 100% DMSO at 20 mM were diluted with 100% DMSO to a concentration of 1 mM, which represents the 200× concentration of the highest compound concentration point in the reaction system. The compounds at this concentration were then subjected to 8-point 4-fold serial dilution with 100% DMSO. The positive control wells were set with 100% DMSO, whereas the negative control wells were set with Remiburtinib at a final concentration of 5 µM. The serially diluted compounds and 100% DMSO were further diluted 10-fold in PBS to achieve the 20× concentration, followed by thorough mixing.
After thorough mixing, the whole blood sample was transferred to a loading reservoir and then dispensed into a 96-well flat-bottom plate at 80 µl per well. The compound dilution was dispensed at 5 µl per well. The 11th column of each row was designated as the negative control well, with 5 µl of 100 µM positive control drug added to each well. After thorough mixing for 5 min, the plate was incubated in a 37°C incubator for 30 min. Human IgD antibody was diluted 1.67-fold with PBS to a concentration of 300 µg/mL, and 10 µl of the diluted solution was added to each well of the culture plate (final concentration: 30 µg/ml). Human IL-4 (stock solution at 50 µg/ml) was diluted 500-fold with PBS to a concentration of 100 ng/mL, and 5 µl of the diluted solution was added to each well of the culture plate (final concentration: 5 ng/ml). After thorough mixing for 5 min, the plate was cultured in a 37°C incubator with 5% CO2 for 18 hours.
Flow cytometry detection: CD69-APC, CD19-BV421 and CD4-APC antibodies, and the isotype control antibodies for CD69-APC were removed from 4°C storage. Each antibody was added at 1 µl per well. After thorough mixing for 5 min, the plate was incubated for 30 min at 4°C (refrigerator) in the dark for staining. The 10X RBC lysis buffer was diluted in water to prepare 1X RBC lysis buffer. Aliquots of 1 ml of the lysis buffer were dispensed into each well of a 96-well deep-well plate in advance. The stained samples were transferred into the deep-well plate containing the lysis buffer for erythrocyte lysis. After completing the transfer of an entire plate, the plate was incubated in the dark for 15-20 min. Upon completion of lysis, the plate was centrifuged at 2000 rpm for 4 min. Each well was washed with 1 ml of PBS. Subsequently, the cells were resuspended in 200 µl of PBS, transferred to a 96-well plate, and washed twice more using the same procedure. The samples were resuspended in 200 µl of PBS per well and then subjected to flow cytometry detection. […]

hERG potassium channels = hERG potassium channels (Homo sapiens, UniProt Q12809); assay: cell-based
[2] = target: T1, BTK recombinant human protein (Homo sapiens, UniProt Q06187); assay: Inhibitory activity against BTK (HTRF KinEASE-TK kit); type: biochemical; conditions: 2 nM BTK, 10 µM ATP, 0.5 hours preincubation at 25°C; read-out: IC50 values of inhibitory activity against BTK
T1 construct: purchased Thermo PV3363
Protocol: Test example 1: Inhibitory activity of compounds of the present disclosure against BTK • I. Experimental materials and instruments • 1. BTK recombinant human protein (Thermo, PV3363) • 2. HTRF KinEASE-TK kit (Cisbio, 62TK0PEC) • 3. 1 M MgCl2 (Thermo, AM9530G) • 4. 1 M MnCl2 (Sigma, M1787-100ML) • 5. Adenosine 5'-triphosphate (ATP) (New England Biolabs, P0756L) • 6. DTT 2M (Sangon Biotech, B645939) • 7. Ultrapure water (Invitrogen, 10977-015) • 8. OptiPlate-384, white opaque 384-well microplate (PerkinElmer, 6007290) • 9. 96-well round-bottom plate (Corning, 3788) • 10. Biochemical incubator (Shanghai Boxun Medical & Biological Instruments Co., Ltd., BSP-100) • 11. 15-mL centrifuge tube (Corning) • 12. Benchtop high-speed centrifuge (Changsha Yingtai Instrument Co., Ltd., TD4N) • 13. Multifunctional microplate reader (PerkinElmer, EnVision) • 14. Bravo liquid handling platform (Agilent Technologies, SGC120TH34702) • II. Experimental procedure
The HTRF KinEASE-TK kit is designed to detect changes in BTK enzyme activity based on two technologies, i.e., fluorescence resonance energy transfer and time-resolved fluorescence. The kit is operated in two stages: 1) enzyme reaction stage: the enzyme reaction is initiated by adding ATP, where the enzyme phosphorylates the substrate, and the compounds are then added to competitively bind to BTK against ATP, thereby inhibiting substrate phosphorylation; and 2) detection stage: after the enzyme reaction is complete, a detection reagent is added to terminate the reaction. Different groups on the phosphorylated substrate bind to the energy donor and energy acceptor, respectively, bringing the two into close proximity. During the instrumental readout, the energy donor is excited by an external light source, which enables resonance energy transfer to the proximal energy acceptor. The acceptor, in turn, becomes excited and emits light at a specific wavelength. Thus, changes in enzyme activity can be detected by measuring the signal values, and the inhibition rate of the compounds against the target enzyme can be calculated, thereby evaluating the inhibitory effect of the compounds on BTK enzyme activity.
Preparation of enzyme reaction buffer: 5× Kinase Buffer was diluted 5-fold with ultrapure water, and then the stock solutions of MgCl2, MnCl2 and DTT were added. The final composition of the buffer was as follows: 1× Kinase Buffer, 10 mM MgCl2, 1 mM MnCl2, and 1 mM DTT.
(§1) Preparation of 5 × BTK working solution: The BTK (5.17 µM) stock solution was removed from -20°C storage. Given that the BTK concentration in the enzyme reaction system was 2 nM and the concentration of the 5× working solution was 10 nM, the BTK stock solution was diluted 517-fold with the enzyme reaction buffer according to the volume required for the experiment. The diluted solution was then added to the 384-well plate at 2 µL per well. The plate was placed in a plate spinner and centrifuged at 2000 rpm for 1 minute to bring the liquid to the bottom of the wells.
as §1, with “[…]. Given” for “Preparation of 5 × BTK working solution: The BTK (5.17 µM) stock solution was removed from -20°C storage. Given”, “the SEB” for “the BTK”, “was 50” for “was 2”, “was 250” for “was 10”, “diluted 10-fold” for “diluted 517-fold”
The test compounds dissolved in 100% DMSO at 20 mM were diluted with 100% DMSO to a concentration of 200 µM, which represents the 200× concentration of the highest compound concentration point in the reaction system. The compounds at this concentration were then subjected to 10-point 3-fold serial dilution with 100% DMSO. The positive control wells and negative control wells were set with 100% DMSO. […]

T1 sequence (Q06187 whole entry): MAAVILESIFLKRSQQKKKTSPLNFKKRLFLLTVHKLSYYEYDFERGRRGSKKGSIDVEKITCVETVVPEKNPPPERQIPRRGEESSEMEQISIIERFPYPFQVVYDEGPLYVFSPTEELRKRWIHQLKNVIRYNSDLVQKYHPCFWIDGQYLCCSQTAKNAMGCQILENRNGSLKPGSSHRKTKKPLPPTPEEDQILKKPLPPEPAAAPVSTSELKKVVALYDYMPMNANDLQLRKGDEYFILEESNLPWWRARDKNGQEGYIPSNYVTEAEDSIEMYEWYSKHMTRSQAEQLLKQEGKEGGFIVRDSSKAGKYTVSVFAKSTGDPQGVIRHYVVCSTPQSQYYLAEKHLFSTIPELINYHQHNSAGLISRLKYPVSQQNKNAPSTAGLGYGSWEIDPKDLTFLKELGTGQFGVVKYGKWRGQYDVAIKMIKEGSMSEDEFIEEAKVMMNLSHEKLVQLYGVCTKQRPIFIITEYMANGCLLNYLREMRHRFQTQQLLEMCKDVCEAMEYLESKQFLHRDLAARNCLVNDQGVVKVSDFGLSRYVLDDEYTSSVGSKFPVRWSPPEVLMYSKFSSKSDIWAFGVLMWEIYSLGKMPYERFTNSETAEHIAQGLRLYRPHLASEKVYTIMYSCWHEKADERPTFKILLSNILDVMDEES
hERG potassium channels, sequence (Q12809 whole entry): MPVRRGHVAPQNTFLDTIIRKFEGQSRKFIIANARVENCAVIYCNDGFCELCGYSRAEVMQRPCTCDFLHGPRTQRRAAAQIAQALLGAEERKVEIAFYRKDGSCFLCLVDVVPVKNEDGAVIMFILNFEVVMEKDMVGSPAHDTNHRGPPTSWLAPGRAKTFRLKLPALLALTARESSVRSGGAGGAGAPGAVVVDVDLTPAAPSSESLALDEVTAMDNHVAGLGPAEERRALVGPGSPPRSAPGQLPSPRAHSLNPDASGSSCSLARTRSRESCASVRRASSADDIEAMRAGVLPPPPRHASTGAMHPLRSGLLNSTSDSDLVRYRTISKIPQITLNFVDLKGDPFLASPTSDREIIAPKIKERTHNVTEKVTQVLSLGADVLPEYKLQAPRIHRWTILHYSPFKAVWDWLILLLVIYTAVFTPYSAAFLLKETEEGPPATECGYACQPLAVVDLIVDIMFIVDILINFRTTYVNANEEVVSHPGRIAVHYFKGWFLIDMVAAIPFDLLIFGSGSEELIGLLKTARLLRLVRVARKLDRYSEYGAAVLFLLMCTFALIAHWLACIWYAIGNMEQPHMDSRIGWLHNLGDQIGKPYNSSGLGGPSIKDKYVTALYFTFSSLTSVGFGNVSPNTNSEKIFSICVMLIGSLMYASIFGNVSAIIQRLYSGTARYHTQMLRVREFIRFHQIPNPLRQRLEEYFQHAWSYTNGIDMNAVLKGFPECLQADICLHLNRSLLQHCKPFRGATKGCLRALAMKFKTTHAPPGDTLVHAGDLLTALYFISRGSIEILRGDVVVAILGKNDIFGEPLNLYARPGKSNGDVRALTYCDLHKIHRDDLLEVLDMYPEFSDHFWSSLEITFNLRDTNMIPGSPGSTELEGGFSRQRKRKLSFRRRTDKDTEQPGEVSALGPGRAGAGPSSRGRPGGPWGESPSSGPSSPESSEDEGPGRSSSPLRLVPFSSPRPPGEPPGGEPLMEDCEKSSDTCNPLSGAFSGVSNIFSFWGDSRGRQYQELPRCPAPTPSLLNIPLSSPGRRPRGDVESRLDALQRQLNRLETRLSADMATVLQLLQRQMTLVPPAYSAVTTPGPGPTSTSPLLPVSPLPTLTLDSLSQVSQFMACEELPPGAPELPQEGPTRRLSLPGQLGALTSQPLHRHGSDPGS

| IC50 [1] [nM] | IC50 [2] [nM] | Compound | IC50 (hERG potassium channels) [nM] |
| --- | --- | --- | --- |
| 10 to 100 | 3 | C=CC(=O)N(C)CCOc1c(N)ncnc1-c1cc(F)cc(NC(=O)c2ccc3c(c2F)OCC3(C)C)c1C [Example 7, N-(3-(6-amino-5-(2-(N-methacrylamido)ethoxy)pyrimidin-4-yl)-5-fluoro-2-methylphenyl)-7-fluoro-3,3-dimethyl-2,3-dihydrobenzofuran-6-carboxamide] | 17000 |
| 10 to 100 | 1.73 | C=CC(=O)N(CC)CCOc1c(N)ncnc1-c1cc(F)cc(NC(=O)c2ccc3c(c2F)OCC3(C)C)c1C [Example 29, N-(3-(6-amino-5-(2-(N-ethylacrylamido)ethoxy)pyrimidin-4-yl)-5-fluoro-2-methylphenyl)-7-fluoro-3,3-dimethyl-2,3-dihydrobenzofuran-6-carboxamide] | 16000 |
| 10 to 100 | 1.55 | C=CC(=O)N(CCF)CCOc1c(N)ncnc1-c1cc(F)cc(NC(=O)c2ccc3c(c2F)OCC3(C)C)c1C [Example 30, N-(3-(6-amino-5-(2-(N-(2-fluoroethyl)acrylamido)ethoxy)pyrimidin-4-yl)-5-fluoro-2-methylphenyl)-7-fluoro-3,3-dimethyl-2,3-dihydrobenzofuran-6-carboxamide] | 20000 |

The remaining lines, values behind:

| Compound | IC50 [1] [nM] | IC50 [2] [nM] | IC50 (hERG potassium channels) [nM] |
| --- | --- | --- | --- |
| C=CC(=O)N(C)CCOc1c(N)ncnc1-c1cc(F)cc(NC(=O)c2cc3c(cc2F)C(C)(C)CO3)c1C [Example 8, N-(3-(6-amino-5-(2-(N-methacrylamido)ethoxy)pyrimidin-4-yl)-5-fluoro-2-methylphenyl)-5-fluoro-3,3-dimethyl-2,3-dihydrobenzofuran-6-carboxamide] | 10 to 100 | 6.2 | 10000 |
| [2H]C([2H])([2H])N(CCOc1c(N)ncnc1-c1cc(F)cc(NC(=O)c2cc3c(cc2F)C2(CC3)CC2)c1C)C(=O)C=C [Example 19, N-(3-(6-amino-5-(2-(N-(methyl-d3)acrylamido)ethoxy)pyrimidin-4-yl)-5-fluoro-2-methylphenyl)-6'-fluoro-2',3'-dihydrospiro[cyclopropane-1,1'-indene]-5'-carboxamide] | 10 to 100 | 8.99 | – |
| C=CC(=O)N(C)CCOc1c(N)ncnc1-c1cc(F)cc(NC(=O)c2ccc3c(c2)OCC3(C)C)c1C [Example 27, N-(3-(6-amino-5-(2-(N-methacrylamido)ethoxy)pyrimidin-4-yl)-5-fluoro-2-methylphenyl)-3,3-dimethyl-2,3-dihydrobenzofuran-6-carboxamide] | 10 to 100 | 7.52 | 12000 |
| [2H]C([2H])(CN(C)C(=O)C=C)Oc1c(N)ncnc1-c1cc(F)cc(NC(=O)c2ccc3c(c2F)OCC3(C)C)c1C [Example 28, N-(3-(6-amino-5-(2-(N-methacrylamido)ethoxy-1,1-d2)pyrimidin-4-yl)-5-fluoro-2-methylphenyl)-7-fluoro-3,3-dimethyl-2,3-dihydrobenzofuran-6-carboxamide] | 10 to 100 | 2.12 | 14000 |
| C=CC(=O)N1CCC[C@H]1COc1c(N)ncnc1-c1cc(F)cc(NC(=O)c2ccc3c(c2F)OCC3(C)C)c1C [Example 31, (S)-N-(3-(5-((1-acryloylpyrrolidin-2-yl)methoxy)-6-aminopyrimidin-4-yl)-5-fluoro-2-methylphenyl)-7-fluoro-3,3-dimethyl-2,3-dihydrobenzofuran-6-carboxamide] | 10 to 100 | 0.7 | – |
| C=CC(=O)N1C[C@H](F)C[C@H]1COc1c(N)ncnc1-c1cc(F)cc(NC(=O)c2ccc3c(c2F)OCC3(C)C)c1C [Example 32, N-(3-(5-(((2S,4R)-1-acryloyl-4-fluoropyrrolidin-2-yl)methoxy)-6-aminopyrimidin-4-yl)-5-fluoro-2-methylphenyl)-7-fluoro-3,3-dimethyl-2,3-dihydrobenzofuran-6-carboxamide] | 10 to 100 | 1.56 | 12000 |
